Measured values published in publication PMC10380083, “Synthesis of Prostate-Specific Membrane Antigen-Targeted Bimodal Conjugates of Cytotoxic Agents and Antiandrogens and Their Comparative Assessment with Monoconjugates” (International Journal of Molecular Sciences, 2023).
*1 amine or outer side, *2 acyl side, *3 side chain or, on linkers, in order; H or OH if unused. Where a SMILES comes first, the peptide text is derived from it. [ ]: non-standard residue; d: D form. The star is where a group is joined. GluureaLys(ε-3-ClBenzyl) = O=C(O)CC[C@H](NC(=O)N[C@@H](CCCCN(Cc1cccc(Cl)c1)*)C(=O)O)C(=O)O; X5 = O=C(O)CC[C@H](NC(=O)N[C@@H](CCCCN(Cc1ccc(C(=O)O)cc1)*)C(=O)O)C(=O)O; X6 = O=C(O)CC[C@H](NC(=O)N[C@@H](CCCCN(Cc1ccc(Br)cc1)*)C(=O)O)C(=O)O; Dolaproine = CO[C@@H]([C@@H]1CCCN1)[C@@H](C)C(=O)O; Dil = CC[C@H](C)[C@H](NC)[C@@H](CC(=O)O)OC; X2 = O=C(CCCc1cn(CCCN[*:1])nn1)[*:2]; PABC = O=C(OCc1ccc(N[*:1])cc1)[*:2]; X1 = C[C@@H](N*)[C@@H](O)c1ccccc1; Cit = NC(=O)NCCC[C@H](N)C(=O)O; Suc = O=C(CCC(=O)[*:2])[*:1]; NMeV = CN[C@H](C(=O)O)C(C)C; Ahx = NCCCCCC(=O)O

What was measured:
[1] = molecular target: T1, PSMA (glutamate carboxypeptidase II, GCPII) (Homo sapiens, UniProt Q04609); experiment: Inhibition of the NAAG cleavage reaction (affinity to PSMA), LNCaP cell extract; format: biochemical; settings: SD
T1 construct: endogenous in cells; host or cells: LNCaP cells (Triton X-100 lysate, sonicated, supernatant after 1000g)
Experimental: The affinity of the four newly obtained ligands to PSMA was evaluated in vitro by inhibiting the cleavage of N-acetylaspartylglutamic acid (NAAG). One function of PSMA, also known as glutamate carboxypeptidase II (GCPII), is the cleavage of NAAG into N-acetylaspartate and glutamate. PSMA-specific ligands inhibit this reaction by interacting with the protein. Thus, the calculation of the values of half-maximum inhibition (IC50) allows evaluation of the binding efficiency of the synthesized compounds to the protein. The analogues of the obtained ligands 6a–d without a lysine residue in their structure were chosen as comparison ligands. Also, some ligands previously described in the literature were chosen as references.
LNCaP cells were cultured in RPMI medium with 10% FBS (Gibco, Billings, MT, USA), 1xGlutamax (Gibco) and 1x penicillin-streptomycin mixture (Gibco, USA). To suspend the cells, growth medium was removed from the 25 cm^2 vial, the cells were washed with PBS buffer and incubated for 5 min with 0.25% trypsin (1 mL). Trypsin was inactivated with complete growth medium (2 mL), washed with PBS, transferred 10^6 cells to a test tube, and 500 μL of lysis buffer (0.5% Triton X-100, 50 mM Tris-HCl (pH 7.5) and 1× Proteinase Inhibition cocktail) was added. The suspension was incubated for 30 min on ice and sonicated (seven times 7 sec at 20–30 s intervals) on ice to avoid overheating. The suspension was centrifuged for 10 min at 1000g at 4 °C, and the supernatant was used in further analysis.
The inhibition by PSMA ligands was analyzed using a non-radioactive protocol with detection of the glutamate released during the reaction. LNCaP cell line extract (10 μL) was mixed with 2 μL of the appropriate compound preparation. A series of dilutions of 2 nM-100 μM compounds was used for initial testing, with dilution steps of 3–5 times. To the resulting mixture, 1 μL of 100 μM NAAG solution was added. The mixture was incubated for 2 h at 37 °C. After incubation, the mixture was doubled with reaction buffer (13 μL) from the Amplex Red Glutamic Acid Kit (Molecular Probes Inc., Eugene, OR, USA), and the multi-component glutamate detection reaction mixture prepared according to the manufacturer’s protocol (26 μL) was added. Amplex Red stock solution: 5 μL Amplex® Red reagent stock solution, 1.25 μL HRP stock solution, 8 μL L-glutamate oxidase, 2.5 μL L-glutamate pyruvate transaminase, 0.5 μL L-alanine, 483 μL 1× reaction buffer. Incubation was performed for 1 h at 37 °C. The fluorescence of resorufin produced by conjugated glutamate detection kit reactions was detected on a VICTORX5 multidetector plate (Perkin Elmer Inc., Waltham, MA, USA) at an excitation length of 555 nm and detection at 580 nm. As a control for endogenous glutamate levels with replacement of the NAAG solution with water.

PC-3 cells = experiment: In vitro cytotoxicity, MTS assay, PC-3; format: cell-based, human; settings: 72 h, extremely low PSMA expression, range 0.5 to 800 nM, triplicates
Experimental: (§1) The resulting bimodal conjugates were tested in vitro on three different PCa cell lines. We used LNCaP cells with high PSMA expression, 22Rv1 cells with moderate PSMA expression and PC-3 cells with extremely low PSMA expression. Different levels of PSMA expression in 22Rv1 and LNCaP cell lines allows evaluation of the effect of the level of expression on the toxicity of the target drugs. PSMA-negative cell line PC-3 allows a qualitative assessment of non-specific toxicity of the obtained compounds.
(§2) The cytotoxicity of the investigated substances was tested using the MTS assay with some modifications. Cells were seeded in the 96-well plates (Corning, New York, NY, USA) at concentration of 7000 cells per well for PC-3 culture, 12,000 cells per well for LNCaP cells and 20,000 cells per well for 22Rv1 line. The cells were counted using the automatic cell counter EVE. All cell lines were purchased from the American Type Culture Collection (ATCC, Manassas, VA, USA). After 1 day, serial dilutions of tested substances were added to the cells. Cell culture medium with addition of DMSO in appropriate concentrations was used as a negative control. DMSO (30%) was added in culture medium as a positive control. Cells were then incubated during 72 h at 37 °C and 5% CO2. Later, the culture medium from each well was removed and 20 μL of MTS reagent (CellTiter 96 AQueous Non-Radioactive Cell Proliferation Assay, Promega) were added to each well with 100 μL of new culture medium. After 4 h incubation at 37 °C in darkness, the absorbance of the solution was measured at 490 nm wavelength using Thermo Scientific Multiskan GO spectrometer. Cell viability was calculated as a percentage compared to control cells. The absorbance of MTS reagent in culture medium without cells was taken as zero. […] Experiments were performed in triplicates. Data were analyzed using Prism 9—GraphPad version 9.2.0 software. p values < 0.05 were considered significant.

22Rv1 cells = experiment: In vitro cytotoxicity, MTS assay, 22Rv1; format: cell-based, human; settings: 72 h, moderate PSMA expression, range 0.5 to 800 nM, triplicates
Experimental: as §1, §2

LNCaP cells = experiment: In vitro cytotoxicity, MTS assay, LNCaP; format: cell-based; settings: 72 h, high PSMA expression, range 0.5 to 800 nM, triplicates
Experimental: as §1, §2

[2] = inhibition of NAAG cleavage, LNCaP cell extract, 2 h at 37 °C, glutamate detected with Amplex Red kit (fluorescence)

T1 sequence (Q04609 whole entry): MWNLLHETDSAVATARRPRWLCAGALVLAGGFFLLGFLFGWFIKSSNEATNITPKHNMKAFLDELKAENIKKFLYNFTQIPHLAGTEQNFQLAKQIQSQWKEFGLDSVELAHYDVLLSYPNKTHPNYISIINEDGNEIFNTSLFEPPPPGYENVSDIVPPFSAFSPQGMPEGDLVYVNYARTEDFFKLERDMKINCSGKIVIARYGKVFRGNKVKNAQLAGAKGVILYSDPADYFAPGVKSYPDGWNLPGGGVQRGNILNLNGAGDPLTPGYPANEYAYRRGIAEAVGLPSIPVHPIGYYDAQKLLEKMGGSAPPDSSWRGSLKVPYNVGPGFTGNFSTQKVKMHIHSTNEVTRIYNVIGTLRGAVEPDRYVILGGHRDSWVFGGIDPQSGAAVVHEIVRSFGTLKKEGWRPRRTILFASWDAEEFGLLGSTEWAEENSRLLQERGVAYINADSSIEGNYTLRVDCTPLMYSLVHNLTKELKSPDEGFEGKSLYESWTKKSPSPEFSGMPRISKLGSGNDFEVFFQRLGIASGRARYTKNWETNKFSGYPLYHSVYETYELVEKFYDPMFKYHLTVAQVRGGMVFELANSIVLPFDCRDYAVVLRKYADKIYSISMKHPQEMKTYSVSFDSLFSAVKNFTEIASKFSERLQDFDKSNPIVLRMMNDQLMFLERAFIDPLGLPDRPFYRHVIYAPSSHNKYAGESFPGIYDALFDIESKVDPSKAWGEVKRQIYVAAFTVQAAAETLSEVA

| SMILES | IC50 [1] [nM] | IC50 [1, 2] [nM] | CC50, PC-3 (PC-3 cells) [nM] | CC50, 22Rv1 (22Rv1 cells) [nM] | CC50, LNCaP (LNCaP cells) [nM] |
| --- | --- | --- | --- | --- | --- |
| [N-]=[N+]=NCCCNC(=O)[C@H](CCCCN)NC(=O)[C@H](Cc1ccc(O)cc1)NC(=O)[C@H](Cc1ccccc1)NC(=O)CCC(=O)NCCCCCC(=O)N(CCCC[C@H](NC(=O)N[C@@H](CCC(=O)O)C(=O)O)C(=O)O)Cc1cccc(Cl)c1 [6a, (3S,7S,25S,28S,31S)-31-(4-aminobutyl)-36-azido-25-benzyl-12-(3-chlorobenzyl)-28-(4-hydroxybenzyl)-5,13,20,23,26,29,32-heptaoxo-4,6,12,19,24,27,30,33-octaazahexatriacontane-1,3,7-tricarboxylic acid] | 13 ± 3 |  |  |  |  |
| [N-]=[N+]=NCCCNC(=O)[C@H](CCCCN)NC(=O)[C@H](Cc1ccc(O)cc1)NC(=O)[C@H](Cc1ccccc1)NC(=O)CCC(=O)NCCCCCC(=O)N(CCCC[C@H](NC(=O)N[C@@H](CCC(=O)O)C(=O)O)C(=O)O)Cc1ccc(Br)cc1 [6b, (3S,7S,25S,28S,31S)-31-(4-aminobutyl)-36-azido-25-benzyl-12-(4-bromobenzyl)-28-(4-hydroxybenzyl)-5,13,20,23,26,29,32-heptaoxo-4,6,12,19,24,27,30,33-octaazahexatriacontane-1,3,7-tricarboxylic acid] | 11 ± 2 |  |  |  |  |
| [N-]=[N+]=NCCCNC(=O)[C@H](CCCCN)NC(=O)[C@H](Cc1ccc(O)cc1)NC(=O)[C@H](Cc1ccccc1)NC(=O)CCC(=O)NCCCCCC(=O)N(CCCC[C@H](NC(=O)N[C@@H](CCC(=O)O)C(=O)O)C(=O)O)Cc1ccc(C(=O)O)cc1 [6c, (3S,7S,25S,28S,31S)-31-(4-aminobutyl)-36-azido-25-benzyl-12-(4-carboxybenzyl)-28-(4-hydroxybenzyl)-5,13,20,23,26,29,32-heptaoxo-4,6,12,19,24,27,30,33-octaazahexatriacontane-1,3,7-tricarboxylic acid] |  | 10 ± 3 |  |  |  |
| [N-]=[N+]=NCCCNC(=O)[C@H](CCCCN)NC(=O)[C@H](Cc1ccccc1)NC(=O)[C@H](Cc1ccccc1)NC(=O)CCC(=O)NCCCCCC(=O)N(CCCC[C@H](NC(=O)N[C@@H](CCC(=O)O)C(=O)O)C(=O)O)Cc1ccc(C(=O)O)cc1 [6d, (3S,7S,25S,28S,31S)-31-(4-aminobutyl)-36-azido-25,28-dibenzyl-12-(4-carboxybenzyl)-5,13,20,23,26,29,32-heptaoxo-4,6,12,19,24,27,30,33-octaazahexatriacontane-1,3,7-tricarboxylic acid] |  | 5.5 ± 1.7 |  |  |  |
| CC[C@H](C)[C@@H]([C@@H](CC(=O)N1CCC[C@H]1[C@H](OC)[C@@H](C)C(=O)N[C@H](C)[C@@H](O)c1ccccc1)OC)N(C)C(=O)[C@@H](NC(=O)[C@H](C(C)C)N(C)C(=O)OCc1ccc(NC(=O)[C@H](CCCNC(N)=O)NC(=O)[C@@H](NC(=O)CCCc2cn(CCCNC(=O)[C@H](CCCCN)NC(=O)[C@H](Cc3ccc(O)cc3)NC(=O)[C@H](Cc3ccccc3)NC(=O)CCC(=O)NCCCCCC(=O)N(CCCC[C@H](NC(=O)N[C@@H](CCC(=O)O)C(=O)O)C(=O)O)Cc3cccc(Cl)c3)nn2)C(C)C)cc1)C(C)C [12a] ({GluureaLys(ε-3-ClBenzyl)-Ahx-Suc}-FYK[X2]V[Cit][PABC][NMeV]V[Dil][Dolaproine]-X1) |  |  | >800 | 267.9 ± 3.8 | 157.4 ± 2.0 |
| CC[C@H](C)[C@@H]([C@@H](CC(=O)N1CCC[C@H]1[C@H](OC)[C@@H](C)C(=O)N[C@H](C)[C@@H](O)c1ccccc1)OC)N(C)C(=O)[C@@H](NC(=O)[C@H](C(C)C)N(C)C(=O)OCc1ccc(NC(=O)[C@H](CCCNC(N)=O)NC(=O)[C@@H](NC(=O)CCCc2cn(CCCNC(=O)[C@H](CCCCN)NC(=O)[C@H](Cc3ccc(O)cc3)NC(=O)[C@H](Cc3ccccc3)NC(=O)CCC(=O)NCCCCCC(=O)N(CCCC[C@H](NC(=O)N[C@@H](CCC(=O)O)C(=O)O)C(=O)O)Cc3ccc(Br)cc3)nn2)C(C)C)cc1)C(C)C [12b] ({X6-Ahx-Suc}-FYK[X2]V[Cit][PABC][NMeV]V[Dil][Dolaproine]-X1) |  |  | >800 | 247.8 ± 3.3 | 182.6 ± 2.2 |
| CC[C@H](C)[C@@H]([C@@H](CC(=O)N1CCC[C@H]1[C@H](OC)[C@@H](C)C(=O)N[C@H](C)[C@@H](O)c1ccccc1)OC)N(C)C(=O)[C@@H](NC(=O)[C@H](C(C)C)N(C)C(=O)OCc1ccc(NC(=O)[C@H](CCCNC(N)=O)NC(=O)[C@@H](NC(=O)CCCc2cn(CCCNC(=O)[C@H](CCCCN)NC(=O)[C@H](Cc3ccc(O)cc3)NC(=O)[C@H](Cc3ccccc3)NC(=O)CCC(=O)NCCCCCC(=O)N(CCCC[C@H](NC(=O)N[C@@H](CCC(=O)O)C(=O)O)C(=O)O)Cc3ccc(C(=O)O)cc3)nn2)C(C)C)cc1)C(C)C [12c] ({X5-Ahx-Suc}-FYK[X2]V[Cit][PABC][NMeV]V[Dil][Dolaproine]-X1) |  |  | >800 | 453.7 ± 9.8 | 177.8 ± 2.2 |
| CC[C@H](C)[C@@H]([C@@H](CC(=O)N1CCC[C@H]1[C@H](OC)[C@@H](C)C(=O)N[C@H](C)[C@@H](O)c1ccccc1)OC)N(C)C(=O)[C@@H](NC(=O)[C@H](C(C)C)N(C)C(=O)OCc1ccc(NC(=O)[C@H](CCCNC(N)=O)NC(=O)[C@@H](NC(=O)CCCc2cn(CCCNC(=O)[C@H](CCCCN)NC(=O)[C@H](Cc3ccccc3)NC(=O)[C@H](Cc3ccccc3)NC(=O)CCC(=O)NCCCCCC(=O)N(CCCC[C@H](NC(=O)N[C@@H](CCC(=O)O)C(=O)O)C(=O)O)Cc3ccc(C(=O)O)cc3)nn2)C(C)C)cc1)C(C)C [12d] ({X5-Ahx-Suc}-FFK[X2]V[Cit][PABC][NMeV]V[Dil][Dolaproine]-X1) |  |  | >800 | 463.3 ± 8.0 | 197.8 ± 2.7 |
| NCCCC[C@H](NC(=O)N[C@@H](CCC(=O)O)C(=O)O)C(=O)O [DCL, (S)-2-(3-((S)-5-amino-1-carboxypentyl)ureido)pentanedioic acid, reference compound] |  | 547 ± 389 |  |  |  |
| C[C@]12CC[C@H](OC(=O)CCCc3cn(CCCNC(=O)[C@H](Cc4ccc(O)cc4)NC(=O)[C@H](Cc4ccccc4)NC(=O)CCC(=O)NCCCCCC(=O)N(CCCC[C@H](NC(=O)N[C@@H](CCC(=O)O)C(=O)O)C(=O)O)Cc4cccc(Cl)c4)nn3)CC1=CC[C@@H]1[C@@H]2CC[C@]2(C)C(c3cccnc3)=CC[C@@H]12 [II, reference compound] |  |  | >800 | >800 | >800 |
